Laboratory results reported in PubChem BioAssay (NCI).
Values joined by “and” are separate entries in the source; they are usually repeats but may differ in a detail not shown here. Identical values can stand only once.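 1) Cells in 96-well plates. 2) Compound, 48 h, 5 concentrations. 3) Linear interpolation between surrounding doses. 4) Unreached endpoint = highest concentration. GI50 = concentration required for 50% inhibition of growth. TGI denotes the concentration required for complete inhibition of growth.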

Assays:
Assay in all cases: NCI tumour cell line growth inhibition, 48 h
[1] = tested on: XF 498 CNS
[2] = tested on: LXFL 529 NSCLC
[3] = tested on: DMS 273 small cell lung
[4] = tested on: HL-60(TB) leukemia
[5] = tested on: TK-10 renal
[6] = tested on: SN12C renal
[7] = tested on: LOX IMVI melanoma
[8] = tested on: SF-539 CNS
[9] = tested on: EKVX NSCLC
[10] = tested on: NCI-H226 lung
[11] = tested on: DMS 114 small cell lung
[12] = tested on: K-562 leukemia
[13] = tested on: A549 NSCLC
[14] = tested on: SNB-19 CNS
[15] = tested on: SK-OV-3 ovarian
[16] = tested on: ACHN renal
[17] = tested on: SR leukemia
[18] = tested on: CCRF-CEM leukemia
[19] = tested on: RXF 393 renal
[20] = tested on: CAKI-1 renal
[21] = tested on: HOP-18 NSCLC
[22] = tested on: 786-0 renal
[23] = tested on: UACC-257 melanoma
[24] = tested on: RPMI-8226 leukemia
[25] = tested on: SNB-78 CNS
[26] = tested on: KM20L2 colon
[27] = tested on: RXF-631 renal
[28] = tested on: KM12 colon
[29] = tested on: NCI-H23 lung
[30] = tested on: HCC-2998 colon
[31] = tested on: HCT-15 colon
[32] = tested on: UO-31 renal
[33] = tested on: OVCAR-4 ovarian
[34] = tested on: U251 CNS
[35] = tested on: SK-MEL-5 melanoma
[36] = tested on: NCI-H460 lung
[37] = tested on: OVCAR-5 ovarian
[38] = tested on: OVCAR-8 ovarian
[39] = tested on: HT29 colon
[40] = tested on: HOP-92 NSCLC
[41] = tested on: SW-620 colon
[42] = tested on: M14 melanoma
[43] = tested on: MALME-3M melanoma
[44] = tested on: IGROV1 ovarian
[45] = tested on: COLO 205 colon
[46] = tested on: OVCAR-3 ovarian
[47] = tested on: SF-295 CNS
[48] = tested on: HCT-116 colon
[49] = tested on: UACC-62 melanoma
[50] = tested on: SF-268 CNS
[51] = tested on: DLD-1 colon
[52] = tested on: HOP-62 NSCLC
[53] = tested on: SNB-75 CNS
[54] = tested on: A498 renal
[55] = tested on: SK-MEL-28 melanoma
[56] = tested on: MOLT-4 leukemia
[57] = tested on: M19-MEL melanoma
[58] = tested on: NCI-H522 lung
[59] = tested on: SK-MEL-2 melanoma
[60] = tested on: MDA-MB-435
[61] = tested on: SN12K1 renal
[62] = tested on: NCI/ADR-RES ovarian
[63] = tested on: BT-549 breast
[64] = tested on: P388/ADR leukemia
[65] = tested on: PC-3 prostate
[66] = tested on: P388 leukemia
[67] = tested on: HS 578T breast
[68] = tested on: T-47D breast
[69] = tested on: MDA-MB-231 breast
[70] = tested on: MDA-N
[71] = tested on: DU-145 prostate

O=C(O)CCSC(=O)Nc1ccc(N=Nc2ccccc2)cc1
TGI [1]: > 100 µM
TGI [2]: > 100 µM
TGI [3]: > 100 µM
TGI [4]: > 100 µM
TGI [5]: > 100 µM
TGI [6]: > 100 µM
TGI [7]: > 100 µM
TGI [8]: > 100 µM
TGI [9]: > 100 µM
TGI [10]: > 100 µM
TGI [11]: > 100 µM
TGI [12]: > 100 µM
TGI [13]: > 100 µM
TGI [14]: > 100 µM
TGI [15]: > 100 µM
TGI [16]: > 100 µM
TGI [17]: > 100 µM
TGI [18]: > 100 µM
TGI [19]: > 100 µM
TGI [20]: > 100 µM
TGI [21]: > 100 µM
TGI [22]: > 100 µM
TGI [23]: > 100 µM
TGI [24]: > 100 µM
TGI [25]: > 100 µM
TGI [26]: > 100 µM
TGI [27]: > 100 µM
TGI [28]: > 100 µM
TGI [29]: > 100 µM
TGI [30]: > 100 µM
TGI [31]: > 100 µM
TGI [32]: > 100 µM
TGI [33]: > 100 µM
TGI [34]: > 100 µM
TGI [35]: > 100 µM
TGI [36]: > 100 µM
TGI [37]: > 100 µM
TGI [38]: > 100 µM
TGI [39]: > 100 µM
TGI [40]: > 100 µM
TGI [41]: > 100 µM
TGI [42]: > 100 µM
TGI [43]: > 100 µM
TGI [44]: > 100 µM
TGI [45]: > 100 µM
TGI [46]: > 100 µM
TGI [47]: > 100 µM
TGI [48]: > 100 µM
TGI [49]: > 100 µM
TGI [50]: > 100 µM
TGI [51]: > 100 µM
TGI [52]: > 100 µM
TGI [53]: > 100 µM
TGI [54]: > 100 µM
TGI [55]: > 100 µM
TGI [56]: > 100 µM

COc1ccc2c(c1OC)C(=O)c1cnccc1C2=O
TGI [1]: > 100 µM
TGI [2]: > 100 µM
TGI [3]: > 100 µM
TGI [4]: > 100 µM
TGI [5]: > 100 µM
TGI [6]: > 100 µM
TGI [7]: > 100 µM
TGI [8]: > 100 µM
TGI [9]: > 100 µM
TGI [10]: > 100 µM
TGI [11]: > 100 µM
TGI [12]: > 100 µM
TGI [13]: > 100 µM
TGI [14]: > 100 µM
TGI [57]: > 100 µM
TGI [15]: > 100 µM
TGI [16]: > 100 µM
TGI [17]: > 100 µM
TGI [18]: > 100 µM
TGI [19]: > 100 µM
TGI [20]: > 100 µM
TGI [21]: > 100 µM
TGI [22]: > 100 µM
TGI [23]: > 100 µM
TGI [24]: > 100 µM
TGI [25]: > 100 µM
TGI [26]: > 100 µM
TGI [27]: > 100 µM
TGI [28]: > 100 µM
TGI [29]: > 100 µM
TGI [30]: > 100 µM
TGI [31]: > 100 µM
TGI [32]: > 100 µM
TGI [33]: > 100 µM
TGI [34]: > 100 µM
TGI [35]: > 100 µM
TGI [36]: > 100 µM
TGI [37]: > 100 µM
TGI [38]: > 100 µM
TGI [39]: > 100 µM
TGI [40]: > 100 µM
TGI [41]: > 100 µM
TGI [42]: > 100 µM
TGI [43]: > 100 µM
TGI [44]: > 100 µM
TGI [45]: > 100 µM
TGI [46]: > 100 µM
TGI [47]: > 100 µM
TGI [58]: > 100 µM
TGI [48]: > 100 µM
TGI [49]: > 100 µM
TGI [51]: > 100 µM
TGI [59]: > 100 µM
TGI [52]: > 100 µM
TGI [53]: > 100 µM
TGI [55]: > 100 µM
TGI [56]: > 100 µM

CCCCCC(O)C1C(=O)OC(C)C(O)/C=C/C=C/C=C/C=C/C=C(\C)C(O)C(O)C(O)CC(O)CC(O)CC(O)CC(O)CC1O (stereo not drawn)
TGI [1]: 2.84 µM
TGI [3]: 2.84 µM
TGI [4]: > 100 µM
TGI [5]: > 100 µM
TGI [60]: > 100 µM
TGI [11]: 2.92 µM
TGI [57]: 2.59 µM
TGI [61]: 2.97 µM
TGI [62]: 3.73 µM
TGI [16]: > 100 µM
TGI [17]: > 100 µM
TGI [19]: 1.89 µM
TGI [21]: 4.61 µM
TGI [22]: > 100 µM
TGI [63]: > 100 µM
TGI [25]: 4.69 µM
TGI [26]: 5.64 µM
TGI [64]: 3.8 µM
GI50 [28]: 11.8 µM and 1.77 µM
TGI [30]: 3.26 µM
TGI [31]: 5.93 µM
TGI [65]: > 100 µM
TGI [32]: 3.27 µM
TGI [33]: 3.25 µM
TGI [36]: 3.44 µM
TGI [66]: 2.42 µM
TGI [40]: 3.21 µM
TGI [42]: > 100 µM
TGI [67]: > 100 µM
TGI [68]: > 100 µM
TGI [58]: 3.3 µM
TGI [69]: > 100 µM
TGI [70]: > 100 µM
TGI [51]: 3.32 µM
TGI [71]: > 100 µM
